# Assay results taken from patent US20250042886A1, “BIS(HETERO)ARYL THIOETHER OXADIAZINES AS FUNGICIDAL COMPOUNDS” (Bayer Aktiengesellschaft, priority 2021, published 2025).
# How the values were obtained:
# [1] = system: Pyricularia oryzae; assay: microbe, parasite or virus in culture; format: cell-based; conditions: 120 h; for inhibition at 20 ppm: read-out: efficacy (inhibition of fungal growth), 20 ppm of active ingredient, liquid culture, 5 days incubation
# [2] = Measurement of Log P values by HPLC on reversed phase columns (EEC directive 79/831 Annex V.A8); format: physicochemical; conditions: Table 1, compounds of formula (I); method [a]: LC-UV, acidic range, 0.1% formic acid in water and acetonitrile
# [3] = system: Botrytis cinerea; assay: Botrytis cinerea in vitro cell test; format: cell-based; conditions: 144 h, liquid culture, 6 days incubation, read-out: efficacy (inhibition of fungal growth); for inhibition at 20 ppm: 20 ppm of active ingredient; for inhibition at 50 µM: 50 μMol/l of active ingredient
# Procedure: B-9. Botrytis cinerea In Vitro Cell Test • Solvent: DMSO • Culture medium: 1 g KH2PO4 (VWR), 1 g K2HPO4 (VWR), 0.5 g Urea (VWR), 3 g KNO3 (Prolabo), 10 g saccharose (VWR), 0.5 g MgSO4, 7H2O (Sigma), 0.07 g CaCl2, 2H2O (Prolabo), 0.2 mg MnSO4, H2O (Sigma), 0.6 mg CuSO4, 5H2O (Sigma), 7.9 mg ZnSO4, 7H2O (Sigma), 0.1 mg H3BO3 (Merck), 0.14 mg NaMoO4, 2H2O (Sigma), 2 mg thiamine (Sigma), 0.1 mg biotine (VWR), 4 mg FeSO4, 7H2O (Sigma), QSP 1 liter • Inoculum: spore suspension Fungicides were solubilized in DMSO and the solution used to prepare the required range of concentrations. […] A spore suspension of B. cinerea was prepared and diluted to the desired spore density. Fungicides were evaluated for their ability to inhibit spore germination and mycelium growth in liquid culture assay. The compounds were added in the desired concentration to the culture medium with spores. After 6 days incubation, fungi-toxicity of compounds was determined by spectrometric measurement of mycelium growth. Inhibition of fungal growth was determined by comparing the absorbance values in wells containing the fungicides with the absorbance in control wells without fungicides.
# [4] = system: Colletotrichum lindemuthianum; assay: Colletotrichum lindemuthianum in vitro cell test; format: cell-based; conditions: 144 h, liquid culture, 6 days incubation, read-out: efficacy (inhibition of fungal growth); for inhibition at 20 ppm: 20 ppm of active ingredient; for inhibition at 50 µM: 50 μMol/l of active ingredient
# Procedure: (§1) B-7. Colletotrichum lindemuthianum In Vitro Cell Test • Solvent: DMSO • Culture medium: 14.6 g anhydrous D-glucose (VWR), 7.1 g Mycological Peptone (Oxoid), 1.4 g granulated Yeast Extract (Merck), QSP 1 liter • Inoculum: spores suspension Fungicides were solubilized in DMSO and the solution used to prepare the required range of concentrations. […] A spore suspension of C. lindemuthianum was prepared and diluted to the desired spore density. Fungicides were evaluated for their ability to inhibit spores germination and mycelium growth in liquid culture assay. The compounds were added in the desired concentration to the culture medium with spores. After 6 days incubation, fungi-toxicity of compounds was determined by spectrometric measurement of mycelium growth. Inhibition of fungal growth was determined by comparing the absorbance values in wells containing the fungicides with the absorbance in control wells without fungicides.
# [5] = system: Pyrenophora teres; assay: Pyrenophora teres in vitro cell test; format: cell-based; conditions: 144 h, liquid culture, 6 days incubation, read-out: efficacy (inhibition of fungal growth)
# Procedure: as §1, with “B-8. Pyrenophora teres In” for “B-7. Colletotrichum lindemuthianum In”, “Inoculum: spore” for “Inoculum: spores”, “of P. teres” for “of C. lindemuthianum”, “inhibit spore” for “inhibit spores”
# [6] = system: Botrytis cinerea; assay: In vivo preventive test on Botrytis cinerea (grey mould); conditions: 500 ppm of active ingredient, sprayed on young gherkin or cabbage plants 24 h before inoculation, evaluated 4 to 5 days after inoculation, read-out: efficacy
# Procedure: The active ingredients were made soluble and homogenized in a mixture of Dimethyl sulfoxide/Acetone//Tween® 80 and then diluted in water to the desired concentration. The young plants of gherkin or cabbage were treated by spraying the active ingredient prepared as described above. Control plants were treated only with an aqueous solution of Acetone/Dimethyl sulfoxide/Tween® 80. After 24 hours, the plants were contaminated by spraying the leaves with an aqueous suspension of Botrytis cinerea spores.
# [7] = system: Fusarium culmorum; assay: Fusarium culmorum in vitro cell test; format: cell-based; conditions: 120 h, 50 μMol/l of active ingredient, liquid culture, 5 days incubation, read-out: efficacy (inhibition of fungal growth)
# Procedure: B-10. Fusarium culmorum In Vitro Cell Test • Solvent: DMSO • Culture medium: 1 g KH2PO4 (VWR), 1 g K2HPO4 (VWR), 0.5 g Urea (VWR), 3 g KNO3 (Prolabo), 10 g saccharose (VWR), 0.5 g MgSO4, 7H2O (Sigma), 0.07 g CaCl2, 2H2O (Prolabo), 0.2 mg MnSO4, H2O (Sigma), 0.6 mg CuSO4, 5H2O (Sigma), 7.9 mg ZnSO4, 7H2O (Sigma), 0.1 mg H3BO3 (Merck), 0.14 mg NaMoO4, 2H2O (Sigma), 2 mg thiamine (Sigma), 0.1 mg biotine (VWR), 4 mg FeSO4, 7H2O (Sigma), QSP 1 liter • Inoculum: spores suspension
# Fungicides were solubilized in DMSO and the solution used to prepare the required range of concentrations. The final concentration of DMSO used in the assay was ≤1%.
# A spore suspension of F. culmorum was prepared and diluted to the desired spore density.
# Fungicides were evaluated for their ability to inhibit spore germination and mycelium growth in liquid culture assay. The compounds were added in the desired concentration to the culture medium with spores. After 5 days incubation, fungi-toxicity of compounds was determined by spectrometric measurement of mycelium growth. Inhibition of fungal growth was determined by comparing the absorbance values in wells containing the fungicides with the absorbance in control wells without fungicides.
Compound,chromatographic logP [2],inhibition at 50 µM [3],pest or weed control at 500 ppm [6],inhibition at 50 µM [4],further results
"Cc1ccc(CC2CON=C(c3cc(Cl)nnc3S(=O)(=O)c3cccc(C(F)(F)F)c3)N2)c(C)c1 (racemic) [Compound I-001, (5RS)-3-(6-chloro-3-{[3-(trifluoromethyl)phenyl]sulfonyl}pyridazin-4-yl)-5-(2,4-dimethylbenzyl)-5,6-dihydro-4H-1,2,4-oxadiazine]",4.24,,,,inhibition at 20 ppm [1]: 90 to 100%
COc1cccc(Sc2cnc(Cl)cc2C2=NOC[C@H](Cc3ccc(Cl)cc3Cl)N2)c1 (racemic) [Compound I-002],4.51,,,,inhibition at 20 ppm [1]: 70 to 79%; inhibition at 20 ppm [3]: 90 to 100%; inhibition at 20 ppm [4]: 90 to 100%
FC(F)(F)Oc1cccc(Sc2cnc(Cl)cc2C2=NOC[C@H](Cc3ccc(Cl)cc3Cl)N2)c1 (racemic) [Compound I-020],5.13,,,,inhibition at 20 ppm [4]: 90 to 100%
Cc1ccc(C[C@H]2CON=C(c3c(Sc4cccc(OC(F)(F)F)c4)cnc4ccccc34)N2)c(C)c1 (racemic) [Compound I-025],4.73,,,,inhibition at 20 ppm [3]: 90 to 100%; inhibition at 20 ppm [4]: 90 to 100%
Cc1cccc(Sc2nnc(Cl)cc2C2=NOC[C@@H](Cc3ccc(Cl)cc3Cl)N2)c1 (racemic) [Compound I-028],,,,,inhibition at 20 ppm [1]: 70 to 79%; inhibition at 20 ppm ([5]; 20 ppm of active ingredient): 90 to 100%; inhibition at 20 ppm [4]: 80 to 89%; LogP [2]: 4.56^[a]
COc1cccc(Sc2nnc(Cl)cc2C2=NOC[C@@H](Cc3ccc(Cl)cc3Cl)N2)c1 (racemic) [Compound I-034],4.3,,,,inhibition at 20 ppm [1]: 70 to 79%; inhibition at 20 ppm [3]: 90 to 100%; inhibition at 20 ppm [4]: 90 to 100%
Cc1ccc([C@H]2CON=C(c3c(Sc4ccc(Cl)c(Cl)c4)nnc4ccccc34)N2)s1 (racemic) [Compound I-038],4.04,90 to 100%,70 to 79%,,
CCOc1cccc(Sc2nnc3ccccc3c2C2=NOC[C@H](c3ccc(C)s3)N2)c1 (racemic) [Compound I-040],3.55,70 to 79%,,90 to 100%,inhibition at 50 µM [7]: 80 to 89%
Cc1ccc([C@@H]2CON=C(c3c(Sc4ccccc4C)nnc(C)c3C)N2)s1 (racemic) [Compound I-045],2.94,80 to 89%,80 to 89%,,
CCOc1cccc(Sc2nnc(C)c(C)c2C2=NOC[C@@H](c3cc(C)sc3C)N2)c1 (racemic) [Compound I-046],3.44,,,80 to 89%,
Cc1cc([C@@H]2CON=C(c3c(Sc4cccc(OC(F)(F)F)c4)nnc(C)c3C)N2)c(C)s1 (racemic) [Compound I-047],3.83,,,90 to 100%,
Cc1ccc([C@H]2CON=C(c3c(Sc4ccc(F)cc4F)nnc4ccccc34)N2)s1 (racemic) [Compound I-048],3.4,90 to 100%,90 to 100%,,
Cc1ccc([C@@H]2CON=C(c3c(Sc4cccc(OC(F)(F)F)c4)nnc(C)c3C)N2)s1 (racemic) [Compound I-055],3.48,80 to 89%,70 to 79%,90 to 100%,
CCOc1cccc(Sc2nnc(C)c(C)c2C2=NOC[C@@H](c3ccc(C)s3)N2)c1 (racemic) [Compound I-074],3.09,,,90 to 100%,
Cc1ccc([C@H]2CON=C(c3c(Sc4ccc(F)c(Cl)c4)nnc(C)c3C)N2)s1 (racemic) [Compound I-083],3.26,90 to 100%,,90 to 100%,
COc1cccc(Sc2nnc(C)c(C)c2C2=NOC[C@@H](c3ccc(C)s3)N2)c1 (racemic) [Compound I-084],2.77,70 to 79%,,90 to 100%,
Cc1ccc([C@H]2CON=C(c3c(Sc4ccc(F)c(F)c4)nnc(C)c3C)N2)s1 (racemic) [Compound I-085],2.99,90 to 100%,90 to 100%,,inhibition at 50 µM [7]: 70 to 79%
"Cc1cc([C@@H]2CON=C(c3c(Sc4cccc(C(F)(F)F)c4)nnc(C)c3C)N2)c(C)s1 (racemic) [Compound I-086, (5R,S)-(2,5-dimethyl-3-thienyl)-3-(5,6-dimethyl-3-{[3-(trifluoromethyl)phenyl]sulfanyl}pyridazin-4-yl)-5,6-dihydro-4H-1,2,4-oxadiazine]",3.72,90 to 100%,,90 to 100%,"inhibition at 50 µM ([1]; read-out: efficacy (inhibition of fungal growth), 50 μMol/l of active ingredient, liquid culture, 5 days incubation): 70 to 79%; inhibition at 50 µM ([5]; 50 μMol/l of active ingredient): 90 to 100%"
Cc1ccc(Sc2nnc(C)c(C)c2C2=NOC[C@@H](c3cc(C)sc3C)N2)cc1 (racemic) [Compound I-099],3.36,80 to 89%,70 to 79%,70 to 79%,
Cc1ccc([C@@H]2CON=C(c3c(Sc4cccc5ccccc45)nnc4ccccc34)N2)s1 (racemic) [Compound I-102],3.8,80 to 89%,,80 to 89%,
Cc1ccc([C@H]2CON=C(c3c(Sc4ccccc4)nnc(C)c3C)N2)s1 (racemic) [Compound I-117],2.69,90 to 100%,90 to 100%,,inhibition at 50 µM [7]: 80 to 89%
Cc1cc([C@@H]2CON=C(c3c(Sc4ccc(OC(F)(F)F)cc4)nnc(C)c3C)N2)c(C)s1 (racemic) [Compound I-119],3.87,70 to 79%,,,
Cc1ccc(Sc2nnc(C)c(C)c2C2=NOC[C@@H](c3ccc(C)s3)N2)c(C)c1 (racemic) [Compound I-126],3.28,,,70 to 79%,
Cc1cccc(Sc2nnc(C)c(C)c2C2=NOC[C@H](c3ccc(C)s3)N2)n1 (racemic) [Compound I-127],2.21,,80 to 89%,,
Cc1ccc([C@H]2CON=C(c3c(Sc4ccc(C(F)(F)F)cc4)nnc4ccccc34)N2)s1 (racemic) [Compound I-130],3.81,70 to 79%,,,
Cc1ccc([C@H]2CON=C(c3c(Sc4ccc(Cl)c(Cl)c4)nnc(C)c3C)N2)s1 (racemic) [Compound I-137],3.55,90 to 100%,,,
